From patent publication US20210330611A1, “THERAPY FOR NEUROLOGICAL DISEASES/DISORDERS” (priority 2020, published 2021)
pIC50: −log10 of the molar value. Where two headings read alike, the source gives them in different places.

How the values were obtained:
[1] = tested on: LPS-induced microglia activation; assay: Image-based assay of LPS-induced microglia activation (HTS and dose response); assay type: cell-based, rat; details: for inhibition at 10 µM: read-out: LPS % inhibition
[2] = tested on: fibrin-induced microglia activation; assay: Image-based assay of fibrin-induced microglia activation (HTS and dose response); assay type: cell-based, rat; details: for inhibition at 10 µM: read-out: Fibrin % inhibition
[3] = tested on: primary rat microglia; assay: Cell toxicity (dead cells, size <150 μm2) in LPS assay
[4] = tested on: primary rat microglia; assay: Cell toxicity (dead cells, size <150 μm2) in coated fibrin (cFib) assay;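 further: share of dead cells sized under 150 µm2 at 10 µM in fibrin-stimulated microglia HTS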
[5] = tested on: fibrin- and LPS-induced microglia activation; assay: cells; assay type: cell-based, rat
[6] = Rattus norvegicus, Microglia, primary HTS, 10 μM, LPS-stimulated primary microglia
[7] = Rattus norvegicus, Microglia, primary HTS, 10 μM, fibrin-stimulated primary microglia
[8] = primary HTS, 10 μM, LPS assay, dead cells size <150 μm2
[9] = primary HTS, 10 μM, fibrin assay, dead cells size <150 μm2
[10] = primary microglia HTS, LPS stimulation, decreased size (<150 μm^2) as marker of toxicity
[11] = primary microglia HTS, fibrin stimulation, decreased size (<150 μm^2) as marker of toxicity
[12] = quadrant by fibrin and LPS inhibition in HTS of 1907 compounds
[13] = Rattus norvegicus, Microglia, 48 h, primary microglia HTS, LPS stimulation, increased cell size (>800 μm^2) as marker of activation
[14] = Rattus norvegicus, Microglia, primary microglia HTS, fibrin stimulation, increased cell size (>800 μm^2) as marker of activation
[15] = Rattus norvegicus, Microglia, primary microglia HTS, 10 μM, LPS-stimulated, cell size >800 μm^2 as marker of activation
[16] = Rattus norvegicus, Microglia, primary microglia HTS, 10 μM, fibrin-stimulated, cell size >800 μm^2 as marker of activation
[17] = primary microglia HTS, 10 μM, LPS assay, cell size <150 μm^2 as marker of toxicity
[18] = primary microglia HTS, 10 μM, fibrin assay, cell size <150 μm^2 as marker of toxicity
[19] = HTS of 1907 compounds, quadrant by fibrin and LPS inhibition
[20] = Rattus norvegicus, Microglia, 48 h, primary microglia HTS, LPS stimulation, activation = cell size >800 μm2
[21] = Rattus norvegicus, Microglia, primary microglia HTS, fibrin stimulation, activation = cell size >800 μm2
[22] = primary microglia HTS, LPS stimulation, toxicity = cell size <150 μm2
[23] = primary microglia HTS, fibrin stimulation, toxicity = cell size <150 μm2

With Cc1nnc(SCC2=C(C(=O)O)N3C(=O)[C@@H](NC(=O)Cn4cnnn4)[C@H]3SC2)s1 [Cefazolin] the inhibition at 10 µM [1, 6] was 11%, the inhibition at 10 µM [2, 7] was 0% and the “LPS % cell toxicity” value [3, 8] was 0%. The “Fibrin % cell toxicity” value [4, 9] was 1% and the “Quadrant (FIG. 5b)” value ([5]; primary HTS, 10 μM) was “Q4”.

For CC(=O)N[C@H]1[C@H]([C@H](O)[C@H](O)CO)OC(O)(C(=O)O)C[C@@H]1O (stereo partly drawn) [N-acetylneuramic Acid, Aceneuramic Acid], the LPS % inhibition ([1]; primary microglia HTS, LPS stimulation, increased cell size (>800 μm^2) as marker of activation) was 19%, the Fibrin % inhibition ([2]; primary microglia HTS, fibrin stimulation, increased cell size (>800 μm^2) as marker of activation) was −9% and the “LPS % cell toxicity” value [3, 10] was 1%. The “Fibrin % cell toxicity” value [4, 11] was 1% and the “Quadrant (FIG. 5b)” value [5, 12] was “Q4”.

CC1=CC(=O)c2ccccc2C1=O [Menadione] was tested, and the inhibition at 10 µM [1, 13] was 123%, the inhibition at 10 µM [2, 14] was 113% and the “LPS % cell toxicity” value [3, 10] was 62%. For the same compound, the “Fibrin % cell toxicity” value [4, 11] was 87% and the “Quadrant (FIG. 5b)” value [5, 12] was “Q2”.

With CC(=O)OCC(=O)[C@@]1(O)CC[C@H]2[C@@H]3CCC4=CC(=O)C=C[C@]4(C)[C@H]3[C@@H](O)C[C@@]21C [Prednisolone acetate, reference compound] the inhibition at 10 µM [1, 13] was 111%, the pIC50 ([1]; Rattus norvegicus, Microglia, Table 7, read-out: LPS_IC50) was 8.52 and the pIC50 ([2]; Rattus norvegicus, Microglia, Table 7, read-out: fib_IC50) was 8.52. The inhibition at 10 µM [2, 14] was 109%, the “LPS % cell toxicity” value [3, 10] was 6% and the “Fibrin % cell toxicity” value [4, 11] was 4%. The “Quadrant (FIG. 5b)” value ([5]; Table 2, screen at 10 μM) was “Q2”, the Activity ([5]; Table 7, fib = fibrin, LPS, tox = toxicity) was “fib/LPS” and the “Quadrant (FIG. 5b)” value [5, 12] was “Q2”.

With NC(=O)c1cc[n+](CC2=C(C(=O)[O-])N3C(=O)[C@@H](NC(=O)Cc4cccs4)[C@H]3SC2)cc1 [Cefalonium] the inhibition at 10 µM [1, 6] was 11%, the inhibition at 10 µM [2, 7] was 9% and the “LPS % cell toxicity” value [3, 8] was 0%. For the same compound, the “Fibrin % cell toxicity” value [4, 9] was 1% and the “Quadrant (FIG. 5b)” value ([5]; primary HTS, 10 μM) was “Q4”.

With Cc1ccc(C(=O)C(C)CN2CCCCC2)cc1 (stereo not drawn) [Tolperisone] the inhibition at 10 µM [1, 15] was 11%, the inhibition at 10 µM [2, 16] was -7% and the “LPS % cell toxicity” value [3, 17] was 0%. For the same compound, the “Fibrin % cell toxicity” value [4, 18] was 1% and the “Quadrant (FIG. 5b)” value [5, 19] was “Q4”.

For O=C1O[C@H](CO)[C@@H](O)[C@H](O)[C@H]1O [Gluconolactone], the inhibition at 10 µM [1, 20] was 17%, the inhibition at 10 µM [2, 21] was -1% and the “LPS % cell toxicity” value [3, 22] was 0%. The “Fibrin % cell toxicity” value [4, 23] was 0% and the “Quadrant (FIG. 5b)” value [5, 12] was “Q4”.

In the case of Oc1cc(O)c2c(c1)O[C@H](c1ccc(O)c(O)c1)[C@@H](O)C2 [Cianidanol], the inhibition at 10 µM [1, 6] was 7%, the inhibition at 10 µM [2, 7] was -19% and the “LPS % cell toxicity” value [3, 8] was 0%. For the same compound, the “Fibrin % cell toxicity” value [4, 9] was 0% and the “Quadrant (FIG. 5b)” value ([5]; primary HTS, 10 μM) was “Q4”.

For C[N+](C)(C)C[C@H](O)CC(=O)[O-] [Levocarnitine], the inhibition at 10 µM [1, 20] was 15%, the inhibition at 10 µM [2, 21] was 8% and the “LPS % cell toxicity” value [3, 22] was 0%. For the same compound, the “Fibrin % cell toxicity” value [4, 23] was 1% and the “Quadrant (FIG. 5b)” value [5, 12] was “Q4”.

For COc1cc(C(=O)N2CCOCC2)cc(OC)c1OC [Trimetozine], the inhibition at 10 µM [1, 15] was 12%, the inhibition at 10 µM [2, 16] was 2% and the “LPS % cell toxicity” value [3, 17] was 0%. For the same compound, the “Fibrin % cell toxicity” value [4, 18] was 1% and the “Quadrant (FIG. 5b)” value [5, 19] was “Q4”.

In the case of CCCCC/C=C\CCC(=O)N[C@H]1[C@H](Oc2c3cc4cc2Oc2ccc(cc2Cl)[C@@H](O[C@@H]2O[C@H](CO)[C@@H](O)[C@H](O)[C@H]2NC(C)=O)[C@@H]2NC(=O)[C@H](NC(=O)[C@@H]4NC(=O)[C@H]4NC(=O)[C@@H](Cc5ccc(c(Cl)c5)O3)NC(=O)[C@H](N)c3ccc(O)c(c3)Oc3cc(O)cc4c3)c3ccc(O)c(c3)-c3c(O[C@H]4O[C@H](CO)[C@@H](O)[C@H](O)[C@@H]4O)cc(O)cc3[C@@H](C(=O)O)NC2=O)O[C@H](CO)[C@@H](O)[C@@H]1O [Teicoplanin [a(2-1) Shown]], the LPS % inhibition ([1]; primary microglia HTS, 10 μM, LPS-stimulated, cell size >800 μm^2 as marker of activation) was 20%, the Fibrin % inhibition ([2]; primary microglia HTS, 10 μM, fibrin-stimulated, cell size >800 μm^2 as marker of activation) was 43% and the “LPS % cell toxicity” value [3, 17] was 0%. For the same compound, the “Fibrin % cell toxicity” value [4, 18] was 1% and the “Quadrant (FIG. 5b)” value [5, 19] was “Q4”.

In the case of CCn1cc(C(=O)O)c(=O)c2ccc(C)nc21 [Nalidixic Acid], the inhibition at 10 µM [1, 13] was 13%, the inhibition at 10 µM [2, 14] was -1% and the “LPS % cell toxicity” value [3, 10] was 1%. The “Fibrin % cell toxicity” value [4, 11] was 1% and the “Quadrant (FIG. 5b)” value [5, 12] was “Q4”.

In the case of CC(=O)N(CC(O)CN(C(C)=O)c1c(I)c(C(=O)NCC(O)CO)c(I)c(C(=O)NCC(O)CO)c1I)c1c(I)c(C(=O)NCC(O)CO)c(I)c(C(=O)NCC(O)CO)c1I (stereo not drawn) [Iodixanol], the inhibition at 10 µM [1, 20] was 10%, the inhibition at 10 µM [2, 21] was -15% and the “LPS % cell toxicity” value [3, 22] was 0%. For the same compound, the “Fibrin % cell toxicity” value [4, 23] was 0% and the “Quadrant (FIG. 5b)” value [5, 12] was “Q4”.
